Source: patent publication US5258406A, “Sulfonimidamides” (priority 1992, dated 1993)
Like-named read-outs stand apart in the source and are kept apart here.

Legend:
Assay type in all cases: in vivo
[1] = test system: VRC5; conditions: oral, DX 10
Description: (§1) The compounds were tested in C3H mice bearing a 6C3HED lymphosarcoma, also known as the Gardner lymphosarcoma (GLS), and in a variety of human tumor xenografts in CD1 nu/nu mice, including CX-1, LX-1, HXGC3, and VRC5. The 6C3HED lymphosarcoma was obtained from the Division of Cancer Treatment, National […] Institute, Tumor Bank, maintained at E. G. and G. Mason Research (Worcester, Mass.). The CX-1 human colon carcinoma and the LX-1 human lung carcinoma xenografts were obtained from the National Cancer Institute. The HXGC3 and VRC5 human colon xenografts were obtained from Dr. P. J. Houghton, St. Jude Children's Hospital in Memphis (see Br. J. Cancer, 37, 213 (1978)). First passage tumor was stored in liquid nitrogen using standard techniques. The transplanted tumor was reestablished from the Tumor Bank every six months or as needed. The tumor was maintained by serial passage twice weekly in C3H mice.
(§2) In the procedure the tumor was removed from passage animals and minced into 1- to 3-mm square fragments using sterile techniques. Tumor pieces were checked for sterility using both Antibiotic Medium 1 and Brain Heart Infusion (Difco, Detroit, Mich.). Recipient mice were shaved and tumor pieces were implanted subcutaneously in the auxiliary region by trocar. Drug therapy on the appropriate schedule was initiated on the day after tumor implant for 6C3HED and after a seven (7) day delay for xenografts (or other delay as noted in Table 2). The compound being tested was mixed with 2.5% Emulphor EL620 from GAF Corporation (1:40 dilution in saline). Food and water were provided ad libitium. The drug was administered orally in 0.5 ml of 2.5% Emulphor (unless otherwise indicated). The tumor was measured the day after treatment ended with two dimensional measurements (width and length) of the tumor taken using automated digital calipers interfaced to a microcomputer. Approximate weight for the tumor was calculated using the following formula [Worzalla, J. F., et al., Invest. New Drugs, 8, 241 (1990], (tumor weight in mg)=(width in mm)^2 ×(length in mm)/2.
(§3) At least one control group of an equal number of mice was treated with the same volume of 2.5% Emulphor only. The percent inhibition was determined by subtracting the ratio of the mean tumor size of the test group relative to the control group from one and multiplying the result times 100.
(§4) The results of several experiments in mice bearing a 6C3HED lymphosarcoma (or other tumor where indicated) when the indicated compounds were administered are provided in Table 2. In Table 2, column 1 gives the Example number of the compound used, column 2 lists the dose level in mg/kg, column 3 provides the percent inhibition of tumor growth, column 4 gives the number of mice which died relative to the total number of animals in the group, column 5 gives the method of administration of the compound, and column 6 gives the dosage schedule. The protocol used with other tumors was the same as with the 6C3HED lymphosarcoma.

[2] = test system: HC1
Description: as §1, §2, §3, §4

[3] = test system: LX1
Description: as §1, §2, §3, §4

[4] = test system: 6C3HED lymphosarcoma; experiment: animal or person
[5] = oral, 150 mg/kg, DX 10, from day 7 after implant
[6] = oral, 300 mg/kg, DX 10, from day 7 after implant
[7] = Mus musculus, 6C3HED, ip, read-out: % inhibition of tumor growth, IP, 150 mg/kg, DX 8
[8] = Mus musculus, 6C3HED, ip, read-out: % inhibition of tumor growth, IP, 300 mg/kg, DX 8
[9] = oral, 500 mg/kg, BIDX 14, from day 14 after implant
[10] = oral, 3 mg/kg, BIDX 14, from day 7 after implant

NS(=O)(=NC(=O)Nc1ccc(Cl)cc1)c1ccc(CO)cc1 (stereo not shown) [Example 50]
% inhibition of tumor growth ([1]; 150 mg/kg): 27% | Tox/Tot (mice which died / total) ([1]; 150 mg/kg): 0/10 | % inhibition of tumor growth ([1]; 300 mg/kg): 59% | Tox/Tot (mice which died / total) ([1]; 300 mg/kg): 0/10 | % inhibition of tumor growth ([2]; IP 0.6 ml, 5 mg/kg, BIDX 14): 6% | Tox/Tot (mice which died / total) ([2]; IP 0.6 ml, 5 mg/kg, BIDX 14): 0/10 | % inhibition of tumor growth ([2]; IP 0.6 ml, 10 mg/kg, BIDX 14): 31% | Tox/Tot (mice which died / total) ([2]; IP 0.6 ml, 10 mg/kg, BIDX 14): 0/10 | % inhibition of tumor growth ([2]; IP 0.6 ml, 20 mg/kg, BIDX 14): 33% | Tox/Tot (mice which died / total) ([2]; IP 0.6 ml, 20 mg/kg, BIDX 14): 0/10 | % inhibition of tumor growth ([2]; IP 0.6 ml, 40 mg/kg, BIDX 14): 71% | Tox/Tot (mice which died / total) ([2]; IP 0.6 ml, 40 mg/kg, BIDX 14): 1/10 | % inhibition of tumor growth ([2]; oral, 75 mg/kg, BIDX 10): 46% | Tox/Tot (mice which died / total) ([2]; oral, 75 mg/kg, BIDX 10): 0/9 | % inhibition of tumor growth ([2]; oral, 150 mg/kg, BIDX 10): 23% | Tox/Tot (mice which died / total) ([2]; oral, 150 mg/kg, BIDX 10): 2/9 | % inhibition of tumor growth [3, 5]: 32% | Tox/Tot (mice which died / total) [3, 5]: 0/10 | % inhibition of tumor growth [3, 6]: 34% | Tox/Tot (mice which died / total) [3, 6]: 0/10 | Tox/Tot (mice which died / total) ([4]; IP, 5 mg/kg, BIDX 8): 0/10 | Tox/Tot (mice which died / total) ([4]; IP, 10 mg/kg, BIDX 8): 0/10 | Tox/Tot (mice which died / total) ([4]; IP, 20 mg/kg, BIDX 8): 0/10 | Tox/Tot (mice which died / total) ([4]; IP, 40 mg/kg, BIDX 8): 1/10 | Tox/Tot (mice which died / total) ([4]; IP, 75 mg/kg, BIDX 8): 0/10 | Tox/Tot (mice which died / total) ([4]; IP, 150 mg/kg, BIDX 8): 0/10 | Tox/Tot (mice which died / total) ([4]; IP, 150 mg/kg, DX 8): 0/10 | Tox/Tot (mice which died / total) ([4]; IP, 300 mg/kg, BIDX 8): 9/10 | Tox/Tot (mice which died / total) ([4]; IP, 300 mg/kg, DX 8): 1/10 | inhibition in vivo at 5 mg/kg ([4]; Mus musculus, 6C3HED, ip, read-out: % inhibition of tumor growth, IP, 5 mg/kg, BIDX 8): 34% | inhibition in vivo at 10 mg/kg ([4]; Mus musculus, 6C3HED, ip, read-out: % inhibition of tumor growth, IP, 10 mg/kg, BIDX 8): 49% | inhibition in vivo at 20 mg/kg ([4]; Mus musculus, 6C3HED, ip, read-out: % inhibition of tumor growth, IP, 20 mg/kg, BIDX 8): 72% | inhibition in vivo at 40 mg/kg ([4]; Mus musculus, 6C3HED, ip, read-out: % inhibition of tumor growth, IP, 40 mg/kg, BIDX 8): 86% | inhibition in vivo at 75 mg/kg ([4]; Mus musculus, 6C3HED, ip, read-out: % inhibition of tumor growth, IP, 75 mg/kg, BIDX 8): 96% | inhibition in vivo at 150 mg/kg ([4]; Mus musculus, 6C3HED, ip, read-out: % inhibition of tumor growth, IP, 150 mg/kg, BIDX 8): 99% | inhibition in vivo at 150 mg/kg [4, 7]: 93% | inhibition in vivo at 300 mg/kg ([4]; Mus musculus, 6C3HED, ip, read-out: % inhibition of tumor growth, IP, 300 mg/kg, BIDX 8): 100% | inhibition in vivo at 300 mg/kg [4, 8]: 99% | inhibition in vivo at 75 mg/kg ([4]; Mus musculus, 6C3HED, po, read-out: % inhibition of tumor growth, oral, 75 mg/kg, BIDX 8): 99% | inhibition in vivo at 150 mg/kg ([4]; Mus musculus, 6C3HED, po, read-out: % inhibition of tumor growth, oral, 150 mg/kg, BIDX 8): 100% | inhibition in vivo at 300 mg/kg ([4]; Mus musculus, 6C3HED, po, read-out: % inhibition of tumor growth, oral, 300 mg/kg, BIDX 8): 100% | Tox/Tot (mice which died / total) ([4]; oral, 75 mg/kg, BIDX 8): 2/10 | Tox/Tot (mice which died / total) ([4]; oral, 150 mg/kg, BIDX 8): 2/10 | Tox/Tot (mice which died / total) ([4]; oral, 300 mg/kg, BIDX 8): 9/10

Cc1ccc(S(=N)(=O)NC(=O)Nc2ccc(Cl)cc2)cc1 (stereo not shown) [Example 2, N-[[(4-chlorophenyl)amino]carbonyl]-4-methylbenzenesulfonimidamide]
Tox/Tot (mice which died / total) ([2]; oral, 250 mg/kg, BIDX 14, from day 14 after implant): 2/9 | % inhibition of tumor growth [2, 9]: TOX | Tox/Tot (mice which died / total) [2, 9]: 9/9 | % inhibition of tumor growth ([2]; po, 250 mg/kg, 336 h): 68% | % inhibition of tumor growth [3, 10]: 24% | Tox/Tot (mice which died / total) [3, 10]: 0/10 | Tox/Tot (mice which died / total) ([3]; oral, 10 mg/kg, BIDX 14, from day 7 after implant): 0/10 | Tox/Tot (mice which died / total) ([3]; oral, 30 mg/kg, BIDX 14, from day 7 after implant): 0/10 | Tox/Tot (mice which died / total) ([3]; oral, 100 mg/kg, BIDX 14, from day 7 after implant): 0/10 | Tox/Tot (mice which died / total) ([3]; oral, 300 mg/kg, BIDX 14, from day 7 after implant): 5/10 | % inhibition of tumor growth ([3]; po, 10 mg/kg, 168 h): 18% | % inhibition of tumor growth ([3]; po, 30 mg/kg, 168 h): 28% | % inhibition of tumor growth ([3]; po, 100 mg/kg, 168 h): 51% | % inhibition of tumor growth ([3]; po, 300 mg/kg, 168 h): 66% | Tox/Tot (mice which died / total) ([4]; IP, 150 mg/kg, DX 8): 1/10 | Tox/Tot (mice which died / total) ([4]; IP, 300 mg/kg, DX 8): 6/10 | Tox/Tot (mice which died / total) ([4]; IV, 12.5 mg/kg, DX 8): 0/10 | Tox/Tot (mice which died / total) ([4]; IV, 25 mg/kg, DX 8): 1/10 | inhibition in vivo at 150 mg/kg [4, 7]: 92% | inhibition in vivo at 300 mg/kg [4, 8]: 98% | inhibition in vivo at 12.5 mg/kg ([4]; Mus musculus, 6C3HED, iv, read-out: % inhibition of tumor growth, IV, 12.5 mg/kg, DX 8): 36% | inhibition in vivo at 25 mg/kg ([4]; Mus musculus, 6C3HED, iv, read-out: % inhibition of tumor growth, IV, 25 mg/kg, DX 8): 52% | inhibition in vivo at 50 mg/kg ([4]; Mus musculus, 6C3HED, po, read-out: % inhibition of tumor growth, oral, 50 mg/kg, BIDX 8): 95% | inhibition in vivo at 75 mg/kg ([4]; Mus musculus, 6C3HED, po, read-out: % inhibition of tumor growth, oral, 75 mg/kg, DX 8): 76% | inhibition in vivo at 100 mg/kg ([4]; Mus musculus, 6C3HED, po, read-out: % inhibition of tumor growth, oral, 100 mg/kg, BIDX 8): 96% | inhibition in vivo at 150 mg/kg ([4]; Mus musculus, 6C3HED, po, read-out: % inhibition of tumor growth, oral, 150 mg/kg, DX 8): 74% | inhibition in vivo at 200 mg/kg ([4]; Mus musculus, 6C3HED, po, read-out: % inhibition of tumor growth, oral, 200 mg/kg, BIDX 8): 98% | inhibition in vivo at 300 mg/kg ([4]; Mus musculus, 6C3HED, po, read-out: % inhibition of tumor growth, oral, 300 mg/kg, DX 8): 82% | inhibition in vivo at 400 mg/kg ([4]; Mus musculus, 6C3HED, po, read-out: % inhibition of tumor growth, oral, 400 mg/kg, BIDX 8): 99% | inhibition in vivo at 600 mg/kg ([4]; Mus musculus, 6C3HED, po, read-out: % inhibition of tumor growth, oral, 600 mg/kg, DX 8): 99% | inhibition in vivo at 800 mg/kg ([4]; Mus musculus, 6C3HED, po, read-out: % inhibition of tumor growth, oral, 800 mg/kg, BIDX 8): 99% | inhibition in vivo at 1200 mg/kg ([4]; Mus musculus, 6C3HED, po, read-out: % inhibition of tumor growth, oral, 1200 mg/kg, DX 8): 100% | Tox/Tot (mice which died / total) ([4]; oral, 50 mg/kg, BIDX 8): 0/10 | Tox/Tot (mice which died / total) ([4]; oral, 75 mg/kg, DX 8): 0/10 | Tox/Tot (mice which died / total) ([4]; oral, 100 mg/kg, BIDX 8): 0/10 | % inhibition of tumor growth ([4]; oral, 150 mg/kg, DX 8): 93% | Tox/Tot (mice which died / total) ([4]; oral, 150 mg/kg, DX 8): 0/10 | Tox/Tot (mice which died / total) ([4]; oral, 200 mg/kg, BIDX 8): 0/10 | % inhibition of tumor growth ([4]; oral, 300 mg/kg, DX 8): 95% | Tox/Tot (mice which died / total) ([4]; oral, 300 mg/kg, DX 8): 0/10 | Tox/Tot (mice which died / total) ([4]; oral, 400 mg/kg, BIDX 8): 0/10 | Tox/Tot (mice which died / total) ([4]; oral, 600 mg/kg, DX 8): 0/10 | Tox/Tot (mice which died / total) ([4]; oral, 800 mg/kg, BIDX 8): 1/10 | Tox/Tot (mice which died / total) ([4]; oral, 1200 mg/kg, DX 8): 0/10
